Assay results as given in US7344845B2, “Olfactory receptor for isovaleric acid and related malodorants and use thereof in assays for identification of blockers of malodor” (Senomyx, Inc., priority 2001, dated 2008).

Tested on: individual murine olfactory neurons
Test: Ca2+ imaging (fura-2) of isolated murine olfactory neurons contacted with isovaleric acid
Type: cell-based, Balb/C mice
Method: Essentially, individual murine olfactory neurons isolated from an enzymatically and mechanically dissociated preparations of murine olfactory epithelium. A very mild trypsin dissociation allows to obtain a single cell suspension in which neurons still bear their axon and dendrites and can therefore be picked based on their morphology. The neurons were loaded with a Ca^2+-sensing fluorescent dye (fura-2) and contacted with isovaleric acid (at 10–100 μM). Single neurons that responded to the isovaleric acid stimulus, as indicated by transient increases in the concentration of intracellular Ca2+ were identified in a microscope field and collected using a suction microcapillary. […]
Olfactory neuroepithelium was dissected from Balb/C mice and placed in a small Petri dish with phosphate-buffered saline (PBS) without Ca^2+ and Mg^2+. […] After dissociation, the tissue was transferred into 5 ml PBS without Ca^2+ and Mg^2+ and the tissue was triturated very gently by pipetting up and down 4–5 times with plastic disposable, progress of cell dissociation was monitored under inverted microscope. […] Isolated olfactory sensory neurons were identified in an inverted microscope field either by their morphology alone (for random control neurons) or by the morphology and ability to respond to IVA as detected by Ca^2+-imaging. […]

SMILES: CC(C)CC(=O)O [isovaleric acid]
- response of a single olfactory neuron indicated by changes in fura-2 fluorescence intensity ratios (340/380 nm) (IVA at either 100 μM or 10 μM, single isolated neuron, FIG. 3): response
- murine olfactory receptors activated (receptors expressed in IVA-responding neurons) (isovaleric acid at 10–100 μM, eleven murine olfactory receptors, mOR IVA A through mOR IVA L): activated
